Experimental data reported in PubChem BioAssay AID2060899 (Molecular Pharmacology Branch, DTP, NCI, 2025).

Tested on: 565726-208-R1-J5-PDC complex spheroids, growth inhibition
Test: Anticancer human tumor 565726-208-R1-J5-PDC patient-derived pancreatic adenocarcinoma cell line growth inhibition [RAS]
Settings: for IC50: curve of first compound; for viability, T/C: stronger effect = lower value
From the text: RAS pathway inhibitors in Combinations in Complex Spheroids
A high-throughput screen of multi-cell type tumor spheroids was designed to identify active combinations of RAS pathway inhibitors and targeted small molecules. Complex spheroids include a stromal component modeled by human endothelial cells (HUVEC) and fibroblasts modeled by human mesenchymal stem cells (MSCs). The concentration ranges selected for each drug and investigational agent were based upon clinically achievable concentrations if the clinical Cmax of the agent was known.
Compounds. The drugs and investigational agents: abemaciclib (NSC768073), cobimetinib (NSC768068), divarasib (GDC6063, NSC841802), docetaxel (NSC628503), GDC-1971 (RLY-1971, NSC841576), gemcitabine (NSC613327), inavolisib (NSC800729), ipatasertib (NSC767898), KB-0742 (NSC834161), MRTX-1133 (NSC836407), osimertinib (NSC779217), RMC-4630 (NSC839698), RMC-6236 (NSC851965), RMC-6291 (NSC852671), Ro-3306 (NSC812927), sapanisertib (NSC764658), SN-38 (NSC673596), staurosporine (NSC755774), SY5609 (NSC837396), and tovorafenib (DAY101, NSC766906), were obtained from the National Cancer Institute (NCI) Developmental Therapeutics Program Chemical Repository. The FDA-approved anticancer drug set is available from the NCI Developmental Therapeutics Program. […] The stock solutions were prepared in dimethyl sulfoxide (DMSO, Sigma-Aldrich, St. Louis, MO, cat. D2650) at 800-fold the tested concentration and stored at -70 degrees C prior to their use. All drugs and investigational agents were tested over a range starting from a high concentration at or near the clinical Cmax and decreasing in half-log increments. If the clinical Cmax for an agent had not been determined, the highest concentration tested was 10 microM.
Cell Culture. All cells were maintained in an incubator at 37 degrees C and 5% CO2 with 95% humidity. The PDC lines were cultured according to standard operating procedures established by the NCI PDMR. All PDCs were thawed and cultured in Matrigel-coated flasks prepared with a working solution of 1X Ham's F-12 nutrient mix, without supplementation (Invitrogen, Waltham, MA, cat. 11765054), 100 U/mL penicillin-streptomycin (Invitrogen, cat. 15140122), and 2.5% Matrigel (Corning Inc., Corning, NY, cat. 354248) for the first three passages. The 362531-283-R-J2-PDC and 782815-120-R-J1-PDC lines were cultured in 6C/Colon 1B media, which includes advanced DMEM/F-12 (Thermo Fisher Scientific, cat. 12634028), 10 mM HEPES (Thermo Fisher Scientific, cat. 15630080), 1X GlutaMAX supplement (Thermo Fisher Scientific, cat. 35050061), 0.1 mg/mL primocin (InvivoGen, San Diego, CA, cat. ant-pm-2), 10% defined fetal bovine serum, heat inactivated (HyClone Laboratories Inc., Logan, UT, cat. SH30070.03HI), 50% L-WRN conditioned media (ATCC, cat. CRL-3276), 1.25 mM N-Acetyl-L-cysteine (Sigma-Aldrich, cat. A9165), 10 mM nicotinamide (Sigma-Aldrich, cat. N0636), 1X B-27 supplement (Thermo Fisher Scientific, cat. 17504044), 1X N-2 supplement (Thermo Fisher Scientific, cat. 17502048), 50 ng/mL human EGF (Thermo Fisher Scientific, cat. PHG0311), and 10 microM Y-27632 dihydrochloride (Tocris Bioscience, cat. 1254). The K12877-001-R-J1-PDC line was cultured in 6I media, which includes all 6C/Colon 1B media plus 10 ng/mL human FGF-10 (PeproTech, cat. 100-26), 1 ng/mL human FGF-2 (PeproTech, cat. 100-18B), 1 µM prostaglandin E2 (Tocris Bioscience, cat. 2296), […] hydrocortisone (Sigma-Aldrich, cat. H4001), and […] bovine insulin (Sigma-Aldrich, cat. I6634). The K86415-001-R-J1-PDC line was cultured in 6D media, which includes all 6C/Colon 1B media components minus the L-WRN conditioned media. The 485176-168-R4-J1-PDC was cultured in PANC media, which includes all 6C/Colon 1B media plus 100 ng/mL human FGF-10 (PeproTech, cat. 100-26), 500 nM SB-431542 (Selleckchem, cat. S1067), and 10 nM gastrin (Tocris Bioscience, cat. 3006). […]
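Note: spheroids exposed to compounds for seven days before readout.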
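Throughout, for viability, T/C: 100% = DMSO vehicle control viability.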

CCC(CC)c1cc(NC2CCC(N)C2)n2nccc2n1 (configuration not stated) + CCn1c(-c2cc(N3CCN(C)CC3)cnc2C(C)OC)c2c3cc(ccc31)-c1csc(n1)CC(NC(=O)C1CC1C)C(=O)N1CCCC(N1)C(=O)OCC(C)(C)C2 was tested. Which IC50 (second compound 0.000949 µM) did it give?
The IC50 was 507 nM.

And the IC50 (second compound 0.003 µM)?
Its IC50 is 340 nM.

What about the IC50 (second compound 0.00949 µM) of the same compound?
The IC50 was less than 31.6 nM.

What about the IC50 (second compound 0.03 µM) of the same compound?
Its IC50 is less than 31.6 nM.

And the IC50 (second compound 0.0949 µM)?
Its IC50 is less than 31.6 nM.

And the IC50 (second compound 0.3 µM)?
Its IC50 is less than 31.6 nM.

And the viability, T/C (second compound 0.000949 µM, first compound 0.0316 µM)?
Its viability, T/C is 61.1%.

What about the viability, T/C (second compound 0.000949 µM, first compound 0.1 µM) of the same compound?
Its viability, T/C is 60%.

And the viability, T/C (second compound 0.000949 µM, first compound 0.316 µM)?
The viability, T/C was 65.7%.

And the viability, T/C (second compound 0.000949 µM, first compound 1 µM)?
The viability, T/C was 32.4%.

What about the viability, T/C (second compound 0.000949 µM, first compound 3.16 µM) of the same compound?
Its viability, T/C is 0.45%.

And the viability, T/C (second compound 0.000949 µM, first compound 10 µM)?
Its viability, T/C is 1.67%.

What about the viability, T/C (second compound 0.003 µM, first compound 0.0316 µM) of the same compound?
Its viability, T/C is 56.6%.

What about the viability, T/C (second compound 0.003 µM, first compound 0.1 µM) of the same compound?
The viability, T/C was 51.5%.

And the viability, T/C (second compound 0.003 µM, first compound 0.316 µM)?
Its viability, T/C is 50%.

What about the viability, T/C (second compound 0.003 µM, first compound 1 µM) of the same compound?
The viability, T/C was 27.7%.

And the viability, T/C (second compound 0.003 µM, first compound 3.16 µM)?
The viability, T/C was 0.47%.

And the viability, T/C (second compound 0.003 µM, first compound 10 µM)?
The viability, T/C was 1.59%.

What about the viability, T/C (second compound 0.00949 µM, first compound 0.0316 µM) of the same compound?
Its viability, T/C is 47.2%.

What about the viability, T/C (second compound 0.00949 µM, first compound 0.1 µM) of the same compound?
Its viability, T/C is 38.9%.

And the viability, T/C (second compound 0.00949 µM, first compound 0.316 µM)?
Its viability, T/C is 34%.

What about the viability, T/C (second compound 0.00949 µM, first compound 1 µM) of the same compound?
Its viability, T/C is 24.6%.

And the viability, T/C (second compound 0.00949 µM, first compound 3.16 µM)?
Its viability, T/C is 0.24%.

What about the viability, T/C (second compound 0.00949 µM, first compound 10 µM) of the same compound?
Its viability, T/C is 2.02%.

What about the viability, T/C (second compound 0.03 µM, first compound 0.0316 µM) of the same compound?
The viability, T/C was 31.3%.

What about the viability, T/C (second compound 0.03 µM, first compound 0.1 µM) of the same compound?
The viability, T/C was 36.5%.

What about the viability, T/C (second compound 0.03 µM, first compound 0.316 µM) of the same compound?
The viability, T/C was 31%.

And the viability, T/C (second compound 0.03 µM, first compound 1 µM)?
Its viability, T/C is 20.2%.

And the viability, T/C (second compound 0.03 µM, first compound 3.16 µM)?
Its viability, T/C is 0.4%.

And the viability, T/C (second compound 0.03 µM, first compound 10 µM)?
Its viability, T/C is 1.85%.

And the viability, T/C (second compound 0.0949 µM, first compound 0.0316 µM)?
Its viability, T/C is 27.4%.

And the viability, T/C (second compound 0.0949 µM, first compound 0.1 µM)?
The viability, T/C was 27%.

And the viability, T/C (second compound 0.0949 µM, first compound 0.316 µM)?
Its viability, T/C is 24.2%.

What about the viability, T/C (second compound 0.0949 µM, first compound 1 µM) of the same compound?
Its viability, T/C is 16.8%.

What about the viability, T/C (second compound 0.0949 µM, first compound 3.16 µM) of the same compound?
Its viability, T/C is 0.44%.

And the viability, T/C (second compound 0.0949 µM, first compound 10 µM)?
The viability, T/C was 1.98%.

And the viability, T/C (second compound 0.3 µM, first compound 0.0316 µM)?
The viability, T/C was 23.5%.

What about the viability, T/C (second compound 0.3 µM, first compound 0.1 µM) of the same compound?
Its viability, T/C is 27.1%.

And the viability, T/C (second compound 0.3 µM, first compound 0.316 µM)?
Its viability, T/C is 23.1%.

What about the viability, T/C (second compound 0.3 µM, first compound 1 µM) of the same compound?
Its viability, T/C is 13.9%.

What about the viability, T/C (second compound 0.3 µM, first compound 3.16 µM) of the same compound?
The viability, T/C was 0.5%.

And the viability, T/C (second compound 0.3 µM, first compound 10 µM)?
Its viability, T/C is 1.9%.
